In US20240398845A1, “USE OF SGLT-2 INHIBITORS FOR THE PREVENTION AND/OR TREATMENT OF CARDIAC DISEASES IN NON-HUMAN MAMMALS EXCLUDING FELINES, IN PARTICULAR CANINES” (BOEHRINGER INGELHEIM VETMEDICA GMBH, priority 2021, published 2024):

How the values were obtained:
[1] = tested on: client-owned dog patients diagnosed with DCM (modified NYHA class 2 and 3); test: Exploratory clinical field study "DCM" - outline; format: in vivo; settings: dogs with DCM; velagliflozin 0.3 mg/kg bodyweight orally once daily; example headed Outline
Description: Client-owned dog patients (older than 1 year) diagnosed with DCM via physical and echocardiography (modified NYHA class 2 and 3) are treated orally and once daily with a velagliflozin dosage of 0.3 mg/kg bodyweight. During the study period the body weight, body condition score, blood pressure and the cardiovascular system are examined on a regular basis during the visits at the site by the investigator. Additionally, thoracic radiographs (in the right lateral and dorso ventral view), echocardiography (IVSd, LA diameter, Ao diameter, LVIDd, LVWd, LVWs, IVSd, LVPWd, EDV, ESV, EF, % FS, presence of effusion) and electrocardiography are performed. In order to obtain an overview as complete as possible regular blood tests include a complete hematology (white blood cells (WBC), WBC differential, red blood cells, hemoglobin, hematocrit, Heinz bodies, platelet count), a biochemistry panel (total protein, Albumin, Globulin, Alkaline phosphatase (ALP), Alanine transaminase (ALT), Aspartate transaminase (AST), Total bilirubin, Creatinine, Blood urea nitrogen or urea (BUN), Calcium, Sodium, Potassium, Chloride, Phosphorus, Glucose, Cholesterol, Triglycerides, Fructosamine), the measurement of total T4, ketone bodies and cardiac biomarkers (Plasma NT-pro BNP, Cardiac troponin I). […]

[2] = tested on: Beagle dogs with asymptomatic/preclinical ACVIM stage B2 MMVD; test: Exploratory laboratory study in dogs with asymptomatic/preclinical myxomatous mitral valve disease (MMVD); format: in vivo, dog
Source text: Echocardiographic findings in dogs with MMVD stage B2 include degenerative valvular changes, increased left atrial dimension (LA/AO-ratio≥1.6), and increased left ventricular end-diastolic dimensions normalized to body weight (LVIDDN≥1.7) (Keene et al., 2019). For evaluation of survival time a severity score (MINE score) based on the echocardiographic variables above, the cardiac contractility (fractional shortening, FS %), and transmitral peak E-wave velocity was initiated (Vezzosi T et al., J Vet Intern Med. 2021, 35(3):1238-1244). The MINE score is associate with the survival time and provides therefore prognostic information.
The objective of this study was to evaluate velagliflozin, a sodium-glucose co-transporter-2 inhibitor, as a treatment for dogs with asymptomatic/preclinical ACVIM stage B2 MMVD. Three Beagle dogs previously diagnosed with this condition by a veterinary cardiologist were included in the study.
Baseline assessments included body weight measurements, veterinary examinations, echocardiographs, urinalysis, blood collections for hematology, biochemistry, BHB, NT-proBNP, cTnI, and erythropoietin analysis as well as radiographs to assess heart size, pulmonary edema, and congestion. On study Day 0, once daily oral administration of velagliflozin (0.05 mg/kg bodyweight) was initiated. Veterinary examinations, urinalysis, and blood collections for analysis of the above-mentioned parameters were repeated on Days 32, 59, and 91. Echocardiographs were repeated on Days 23, 58, and 93. General health observations are conducted twice daily, and body weights measured approximately every 3 weeks.
Additionally, the “The Mitral Insufficiency Echocardiographic” score, a severity classification of myxomatous mitral valve disease (MMVD) in dogs (MINE score) was calculated (Vezzosi et al., 2021). This score as an easy-to-use echocardiographic classification of severity of MMVD based on routinely acquired echocardiographic variables. The hypothesis was that the MINE score is clinically effective since it is associated with median survival time of the animals (see tables 5 and 6 below).

[3] = tested on: dogs with occult or overt dilated cardiomyopathy (DCM)
[4] = Azul, Day 58, velagliflozin 0.05 mg/kg bodyweight oral once daily
[5] = case 100-006, overt DCM, during study

N#Cc1ccc([C@@H]2O[C@H](CO)[C@@H](O)[C@H](O)[C@H]2O)cc1Cc1ccc(C2CC2)cc1 [velagliflozin, Velagliflozin]
clinical parameters (e.g. appetite, activity level and breathing) [1]: improve significantly | survival time and time to event (overall death, cardiovascular death or hospitalization for heart failure) [1]: clinically relevant prolongation | MINE severity classification ([2]; Azul, D93, moderate at baseline): severe | LVIDDN reduction from baseline [2, 4]: 3.56% | decrease from baseline in LA/Ao ratio [2, 4]: 17.3% | NT-proBNP reduction from baseline ([2]; Azul, Day 59, within the reference range): 76.3% | NT-proBNP reduction from baseline ([2]; Azul, Day 91): 45.8% | Total MINE score ([2]; Azul, Day 93, base line 7 (Moderate), increase due to increase in FS %, might be due to cystitis): 8 (Increase due to increase in FS %, also showed an | LVIDDN change versus baseline ([2]; Azul, Day 93, just above baseline): +0.81% | LA/Ao ratio below baseline ([2]; Azul, Day 93, velagliflozin 0.05 mg/kg bodyweight oral once daily): 1.08% | adverse event in one animal ([2]; Azul, during treatment, recovered): developed a cystitis | LVIDDN (in words) ([2]; Azul, summary): no change | LA/AO-ratio (in words) ([2]; Azul, summary at D93): no change | LVIDDN (in words) ([2]; Birdie and Shelby, summary, within day-to-day variability): slight decrease (improvement) | LVIDDN reduction from baseline ([2]; Birdie, Day 93): 5.25% | MINE severity classification ([2]; Birdie, Day 93, Mild at base line): Mild (4-5) | Total MINE score ([2]; Birdie, Day 93, base line 5 (Mild)): 5 | reduction from baseline in LA/Ao ratio ([2]; Birdie, Day 93, velagliflozin 0.05 mg/kg bodyweight oral once daily): 12.73% | left atrial size (in words) ([2]; Birdie, summary, beyond day-to-day variability): normalization of the left atrial size | NT-proBNP reduction from baseline ([2]; Shelby, Day 91, still above the reference range): 45.6% | LVIDDN reduction from baseline ([2]; Shelby, Day 93): 3.54% | MINE severity classification ([2]; Shelby, Day 93, Moderate at base line): Moderate (6-7) | Total MINE score ([2]; Shelby, Day 93, base line 7 (Moderate), decrease due to improvement in left ventricular diameter): 6 | LA/AO-ratio (in words) ([2]; Shelby, summary, within day-to-day variability): slight increase (worsening) | reduction in LA/Ao ratio from baseline ([2]; Shelby, velagliflozin 0.05 mg/kg bodyweight oral once daily): had not shown a reduction | survival at the time of the interim analysis ([2]; all three dogs, D94): still alive | blood glucose, renal function, or serum electrolytes ([2]; any time in any animal): no changes | observations following dosing ([2]; attributed to oral administration of a liquid product): Lip smacking/licking, head shaking, grimacing, and salivating | most frequent abnormal observation following initiation of treatment ([2]; group housed dogs, relationship to test product unknown, one instance also at baseline): vomit found within the housing pen | changes in cTnI ([2]; three Beagle dogs, velagliflozin 0.05 mg/kg bodyweight oral once daily): do not appear to be showing a clinically significant trend | hematology, biochemistry, or erythropoietin parameters ([2]; three Beagle dogs, velagliflozin 0.05 mg/kg bodyweight oral once daily, Days 32, 59, 91): No clinically significant changes | glucosuria ([2]; three dogs, pharmacodynamic effectiveness): noted in all three dogs | development of congestive heart failure (CHF) ([2]; three dogs, until D94, velagliflozin 0.05 mg/kg bodyweight once daily only): None of the study dogs developed congestive heart failure | overall disease state ([2]; three dogs, until interim analysis at D94): stable disease states with signs of improvement | creatinine and urea ([3]; both dogs with overt DCM): mild, however clinically not relevant increase | survival times ([3]; both dogs with overt DCM treated with velagliflozin, no standard of care treatment): comparable to dogs receiving standard of care treatment | left atrial and left ventricular size, and one of the cardiac biomarkers ([3]; both dogs with overt DCM, at D45, velagliflozin only): improvement | left ventricular contractility ([3]; both dogs with overt DCM, no positive inotropic drug): remained poor | body weight ([3]; case 100-006, overt DCM): did not reveal any significant changes | creatinine [3, 5]: mild increase | urea [3, 5]: moderate increase | cardiac TnI (in words) ([3]; case 100-006, overt DCM, during the study period): increased | blood glucose and electrolytes (Na and K) ([3]; case 100-006, overt DCM, entire study duration): remained within normal limits | normalized left ventricular internal diastolic diameter (LVIDDN) (in words) ([3]; case 100-006, overt DCM, first 45 days): decrease | NT-proBNP (in words) ([3]; case 100-006, overt DCM, first 45 days of the study, velagliflozin only): normalized
